According to patent US9452225B2, “GLP-1 prodrugs” (Novo Nordisk A/S, priority 2012, dated 2016):

Experiments:
[1] = Pharmacokinetic study in minipigs after i.v. administration; format: in vivo, Göttingen minipigs; details: iv, minipig
Procedure: The purpose of this study is to determine the pharmacokinetic (PK) profile in vivo of a prodrug of the invention (Example 4) and the corresponding parent drug (Example B2.2) after i.v. administration to minipigs, e.g. the prolongation of their time in the body and thereby their time of action. This is done in a PK study, where the terminal half-life of the compound in question is determined. By terminal half-life is generally meant the period of time it takes to halve a certain plasma concentration, measured after the initial distribution phase.
Threefemale Göttingen minipigs, obtained from Ellegaard Göttingen Minipigs (Dalmose, Denmark) approximately 6-8 months of age and weighing approximately 16-21 kg (prodrug pig 16.8 kg, drug pigs 21.3 and 21.1 kg), were used in the studies. The minipigs were housed individually and fed restrictedly once daily with SDS minipig diet (Special Diets Services, Essex, UK). […]
The prodrug of Example 4 and the corresponding drug of Example B2.2 were dissolved in 50 mM sodium phosphate, 145 mM sodium chloride, 0.05% polysorbate 80, pH 7.4 to a suitable concentration (for example, 169.6 nmol/ml for the prodrug). […] Individual plasma concentration-time profiles were analyzed by a non-compartmental model in WinNonlin v. […] Also, the resulting terminal half-lives (harmonic mean/h) were determined, if possible. […]

[2] = Prodrug half-life in vitro, plasma method (minipig heparin plasma); format: in vitro ADME; details: minipig heparin plasma 800 μL + 200 μL 200 mM phosphate pH 7.4, 37° C.; UPLC_A, or UPLC_B for compounds marked *; read-out: T½ in plasma (converted)
Procedure: The purpose of this example is to test the in vitro half-lives (T½) of the GLP-1 prodrugs of the invention, in comparison to conceptually different prodrugs. In what follows two in vitro methods are described, viz. a method conducted in buffer, and a method conducted in plasma.
The half life of the prodrug (T½) was calculated from the slope of a linear fit to the curve of ln(% prodrug (Y)) as a function of time (t), as follows: Y=÷αt+k Math. 1 T½=ln(2)/α Math. 2 Plasma Method Buffer: 200 mM Phosphate, pH 7.4 at 37° C.
NaH2PO4.2H2O (15.61 g, 100 mmol) was dissolved in milliQ water (approximately 450 mL) and adjusted to pH=7.44 at approximately 20° C. with concentrated NaOH (aq) and 1 M NaOH (aq). Water was added to 500.00 mL.
Serum: Minipig Serum, Heparin-Plasma
Fresh blood was tapped from minipig into 9 mL LH lithium heparin Vacuette tubes from Greiner bio-one (catalogue number 455084). After cooling on ice it was centrifuged (10 min, 4° C., 3000 rpm/1942G) and the supernatant isolated and kept at −18° C. before use.
100 nmol of the compound to be tested was dissolved in 200 μL buffer, added to 800 μL plasma (centrifuged), and incubated at 37° C. Samples (50 μL) were drawn at appropriate intervals into 150 μL absolute EtOH. After a short stirring the sample was centrifuged and the supernatant transferred to the UPLC vial (10 μL injection).
The % parent drug compared to prodrug formed as a function of time was evaluated by UPLC, and the half-life calculated, both in the same way as described above under the Buffer method.

[3] = Prodrug half-life in vitro, buffer method; format: physicochemical; details: 25 mM phosphate buffer pH 7.4, 37° C., 1.0 mg/mL; UPLC_A, or UPLC_B for compounds marked *; read-out: T½ in buffer (converted)
Method in brief: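 Prodrug incubated at 1.0 mg/mL in 25 mM phosphate buffer (ionic strength 154 mM, pH 7.4) at 37° C, sampled over time. Prodrug and released parent quantified by UPLC peak areas; T½ derived as ln(2)/slope of linear fit of ln(% prodrug) versus time.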

human GLP-1 receptor = biological target: T1, human GLP-1 receptor (Homo sapiens, UniProt P43220); experiment: In vitro potency, AlphaScreen cAMP assay on membranes; format: biochemical; details: cAMP formation, membranes of BHK467-12A cells
T1 construct: expressed in transfected cells; host or cells: BHK cells, clone FCW467-12A (parent line BHKTS13), membranes
Procedure: The purpose of this example is to test the activity, or potency, in vitro of, for example, the GLP-1 parent drugs of the prodrugs of the invention.
Purified plasma membranes from a stable transfected cell line, BHK467-12A (tk-ts13), expressing the human GLP-1 receptor were stimulated with the GLP-1 drug in question, and the potency of cAMP production was measured using the AlphaScreen™ cAMP Assay Kit from Perkin Elmer Life Sciences. The basic principle of The AlphaScreen Assay is a competition between endogenous cAMP and exogenously added biotin-cAMP. The capture of cAMP is achieved by using a specific antibody conjugated to acceptor beads.
A stable transfected cell line and a high expressing clone were selected for screening. The cells were grown at 5% CO2 in DMEM, 10% FCS, 1% Pen/Strep (Penicillin/Streptomycin) and preferably 0.5 (alternatively 1.0 mg/ml) of the selection marker G418.
Cells at approximate 80% confluence were washed twice with PBS and harvested with Versene (aqueous solution of the tetrasodium salt of ethylenediaminetetraacetic acid), centrifuged 5 min at 1000 rpm and the supernatant removed. The additional steps were all made on ice. The cell pellet was homogenised by the Ultrathurax for 20-30 s in 10 ml of Buffer 1 (20 mM Na-HEPES, 10 mM EDTA, pH=7.4), centrifuged 15 min at 20,000 rpm and the pellet resuspended in 10 ml of Buffer 2 (20 mM Na-HEPES, 0.1 mM EDTA, pH=7.4). The suspension was homogenised for 20-30 s and centrifuged 15 min at 20,000 rpm. Suspension in Buffer 2, homogenisation and centrifugation was repeated once and the membranes were resuspended in Buffer 2. The protein concentration was determined and the membranes stored at −80° C. until use.
The assay was performed in flat-bottom 96-well plates (Costar cat. no: 3693). The final volume per well was 50 μl.
AlphaScreen cAMP Assay Kit from Perkin Elmer Life Sciences (cat. No: 6760625M); containing Anti-cAMP Acceptor beads (10 U/μl), Streptavidin Donor beads (10 U/μl) and Biotinylated-cAMP (133 U/μl). […]

T1 sequence (P43220 24-463): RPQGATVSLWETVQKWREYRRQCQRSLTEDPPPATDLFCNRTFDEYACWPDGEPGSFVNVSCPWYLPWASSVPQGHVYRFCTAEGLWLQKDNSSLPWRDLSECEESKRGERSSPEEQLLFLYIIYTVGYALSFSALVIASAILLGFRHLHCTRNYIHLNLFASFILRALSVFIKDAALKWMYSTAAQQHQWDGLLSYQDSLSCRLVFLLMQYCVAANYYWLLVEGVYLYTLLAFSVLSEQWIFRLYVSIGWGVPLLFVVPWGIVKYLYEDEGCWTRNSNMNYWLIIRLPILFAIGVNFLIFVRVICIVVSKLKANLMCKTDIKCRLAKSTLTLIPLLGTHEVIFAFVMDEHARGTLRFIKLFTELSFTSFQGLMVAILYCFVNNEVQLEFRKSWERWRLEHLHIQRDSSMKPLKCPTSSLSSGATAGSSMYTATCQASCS

| Structure (SMILES) | half-life ([1]; in vivo, prodrug given i.v. 8 nmol/kg, half-life of the released parent drug, estimated from the bell-shaped curve, read-out: apparent terminal half-life of corresponding drug (estimated) (converted)) | half-life [2] | half-life [3] | EC50 (human GLP-1 receptor) | half-life ([1]; female, Göttingen, plasma, parent drug given i.v. 3 nmol/kg, read-out: Terminal half-life (harmonic mean/h) (converted)) |
| --- | --- | --- | --- | --- | --- |
| CC[C@H](C)[C@H](NC)C(=O)N[C@H](C(=O)O[C@@H](Cc1c[nH]cn1)C(=O)N[C@@H](C)C(=O)N[C@@H](CCC(=O)O)C(=O)NCC(=O)N[C@H](C(=O)N[C@@H](Cc1ccccc1)C(=O)N[C@H](C(=O)N[C@@H](CO)C(=O)N[C@@H](CC(=O)O)C(=O)N[C@H](C(=O)N[C@@H](CO)C(=O)N[C@@H](CO)C(=O)N[C@@H](Cc1ccc(O)cc1)C(=O)N[C@@H](CC(C)C)C(=O)N[C@@H](CCC(=O)O)C(=O)NCC(=O)N[C@@H](CCC(N)=O)C(=O)N[C@@H](C)C(=O)N[C@@H](C)C(=O)N[C@@H](CCCCNC(=O)COCCOCCNC(=O)COCCOCCNC(=O)CC[C@H](NC(=O)CCCCCCCCCOc1ccc(C(=O)O)cc1)C(=O)O)C(=O)N[C@@H](CCC(=O)O)C(=O)N[C@@H](Cc1ccccc1)C(=O)N[C@H](C(=O)N[C@@H](C)C(=O)N[C@@H](Cc1c[nH]c2ccccc12)C(=O)N[C@@H](CC(C)C)C(=O)N[C@H](C(=O)N[C@@H](CCCNC(=N)N)C(=O)NCC(=O)N[C@@H](CCCNC(=N)N)C(=O)N[C@@H](CCCCNC(=O)COCCOCCNC(=O)COCCOCCNC(=O)CC[C@H](NC(=O)CCCCCCCCCOc1ccc(C(=O)O)cc1)C(=O)O)C(=O)O)C(C)C)[C@@H](C)CC)C(C)C)[C@@H](C)O)[C@@H](C)O)C(C)C [Example 4] | 68 h | 27.9 h | 58.9 h | – | – |
| CC[C@H](C)[C@H](NC(=O)[C@H](Cc1ccccc1)NC(=O)[C@H](CCC(=O)O)NC(=O)[C@H](CCCCNC(=O)COCCOCCNC(=O)COCCOCCNC(=O)CC[C@H](NC(=O)CCCCCCCCCOc1ccc(C(=O)O)cc1)C(=O)O)NC(=O)[C@H](C)NC(=O)[C@H](C)NC(=O)[C@H](CCC(N)=O)NC(=O)CNC(=O)[C@H](CCC(=O)O)NC(=O)[C@H](CC(C)C)NC(=O)[C@H](Cc1ccc(O)cc1)NC(=O)[C@H](CO)NC(=O)[C@H](CO)NC(=O)[C@@H](NC(=O)[C@H](CC(=O)O)NC(=O)[C@H](CO)NC(=O)[C@@H](NC(=O)[C@H](Cc1ccccc1)NC(=O)[C@@H](NC(=O)CNC(=O)[C@H](CCC(=O)O)NC(=O)[C@H](C)NC(=O)[C@@H](O)Cc1c[nH]cn1)[C@@H](C)O)[C@@H](C)O)C(C)C)C(=O)N[C@@H](C)C(=O)N[C@@H](Cc1c[nH]c2ccccc12)C(=O)N[C@@H](CC(C)C)C(=O)N[C@H](C(=O)N[C@@H](CCCNC(=N)N)C(=O)NCC(=O)N[C@@H](CCCNC(=N)N)C(=O)N[C@@H](CCCCNC(=O)COCCOCCNC(=O)COCCOCCNC(=O)CC[C@H](NC(=O)CCCCCCCCCOc1ccc(C(=O)O)cc1)C(=O)O)C(=O)O)C(C)C [Example B2.2] | – | – | – | 460 pM | 37 h |
